From patent US6413937B1, “Combinations for use in increasing the potency of a substrate for multidrug resistance related protein” (Dublin City University and Enterprise Ireland, priority 1996, dated 2002)

Assays:
DLKP cell line = assay: miniaturised in vitro colorimetric cell survival assay (acid phosphatase end-point), DLKP; assay type: cell-based, human
Description: (§1) All the results presented in this Example for the DLKP, A549 and OAW42-SR cell lines were derived using the same miniaturised in vitro calorimetric assay system. On Day 1 of the assay 1000 cells/well/100 μl were plated into 96-well plates. Cells were allowed to attach overnight and cell viability was visually assessed. […] NSAID plus chemotherapeutic drug) to be analysed were added onto the cells. The individual drugs were added separately in 50 μl quantities (4× stocks, to take into account the dilution effect of having 200 μl final volume in each well). The drugs were left on the cells for five further days (Day 7) and cell number was determined using the acid phosphatase end-point assay which uses p-nitrophenol phosphate as substrate (Martin, A. and Clynes, M. (1991) In Vitro Dev. Biol., 27A, 183-184). On Day 7 the culture medium was removed from the cells and they were washed once with phosphate buffered saline (PBS). […] After the incubation period 50 μl of 1N NaOH was added to each well to develop the colour. The plates were then read at 405 nm (reference 620 nm) on an ELISA plate-reader. […] All results are the cell survival means ±S.D. from a minimum of three experiments.

DLKP-A cell line = assay: miniaturised in vitro colorimetric cell survival assay, P-170 overexpressing DLKP-A; assay type: cell-based, human; conditions: v) Vincristine 1.0 μg/ml alone
Description: All the results presented in this Example for the DLKP, A549 and OAW42-SR cell lines were derived using the same miniaturised in vitro calorimetric assay system. On Day 1 of the assay 1000 cells/well/100 μl were plated into 96-well plates. Cells were allowed to attach overnight and cell viability was visually assessed. On Day 2 the two drugs (i.e. NSAID plus chemotherapeutic drug) to be analysed were added onto the cells. The individual drugs were added separately in 50 μl quantities (4× stocks, to take into account the dilution effect of having 200 μl final volume in each well). The drugs were left on the cells for five further days (Day 7) and cell number was determined using the acid phosphatase end-point assay which uses p-nitrophenol phosphate as substrate (Martin, A. and Clynes, M. (1991) In Vitro Dev. Biol., 27A, 183-184). On Day 7 the culture medium was removed from the cells and they were washed once with phosphate buffered saline (PBS). After washing, 100 μl of freshly prepared substrate-containing buffer (0.1% Triton X-100 in 0.1M sodium acetate, pH 5.5) was added to each well and the plates were left in an incubator at 37° C. for 2 h. After the incubation period 50 μl of 1N NaOH was added to each well to develop the colour. The plates were then read at 405 nm (reference 620 nm) on an ELISA plate-reader.
In the results given below the % cell survival in the drug-free control is 100%. All results are the cell survival means ±S.D. from a minimum of three experiments.
v) is an example of a positive NSAID plus a positive drug on a P-170 overexpressing cell line: DLKP-A;

HL-60ADR cells = assay: etoposide-induced apoptosis (nuclear fragmentation), HL-60ADR; assay type: cell-based; conditions: HL-60ADR (resistant); etoposide alone or co-treated with sulindac; FIG. 1
Description: An experiment was carried out to determine the effect of the NSAID sulindac on etoposide-induced apoptosis in two cell lines, namely HL-60S and HL-60ADR. These cell lines were donated by Dr. Melvin Center, Kansas State University, Manhattan Kans. 66506, U.S.A. For the HL-60S and ADR cell lines the percentage of apoptotic cells within the cell population, following drug exposure, was used to quantify toxicity. Cells were plated in fresh medium at a concentration of 10^6 cells/ml in a 24-well plate (Greiner) and drugs were then added to the wells. A 200 μl sample from each well was taken after 4 and 8 hrs. Samples were cytospun for 2 min at 500 rpm using a Shandon Cytofuge3. After air-drying the cytospins were stained using a Romanowsky staining kit, Rappi-Diff II (Langanbach), dried and mounted in DPX (BDH). Slides were studied on an Optiphot microscope (Nikon) fitted with a 40× objective, and visualised on a monitor via a Mitsubishi CCD-100E colour CCD-camera and a 0.6× relay lens. Nuclear fragmentation was used as a morphological marker for apoptosis and a minimum of 200 cells were assessed in at least three different microscopic fields. Results were expressed as the percentage of apoptotic cells within the population. Each experiment was repeated in duplicate.

A549 cell line = assay: miniaturised in vitro colorimetric cell survival assay (acid phosphatase end-point), A549; assay type: cell-based, human; conditions: for % cell survival: alone or + Adriamycin 20 ng/ml
Description: as §1

MRP pump = target: T1, MRP pump (Homo sapiens, UniProt P33527); assay: ATP-dependent transport of [3H]LTC4 into inside-out plasma membrane vesicles from HL60ADR cells; assay type: biochemical
T1 construct: inside-out plasma membrane vesicles prepared from HL60ADR cells; endogenous in cells; host or cells: HL60ADR cells (plasma membrane vesicles)
T1 sequence (P33527 whole entry): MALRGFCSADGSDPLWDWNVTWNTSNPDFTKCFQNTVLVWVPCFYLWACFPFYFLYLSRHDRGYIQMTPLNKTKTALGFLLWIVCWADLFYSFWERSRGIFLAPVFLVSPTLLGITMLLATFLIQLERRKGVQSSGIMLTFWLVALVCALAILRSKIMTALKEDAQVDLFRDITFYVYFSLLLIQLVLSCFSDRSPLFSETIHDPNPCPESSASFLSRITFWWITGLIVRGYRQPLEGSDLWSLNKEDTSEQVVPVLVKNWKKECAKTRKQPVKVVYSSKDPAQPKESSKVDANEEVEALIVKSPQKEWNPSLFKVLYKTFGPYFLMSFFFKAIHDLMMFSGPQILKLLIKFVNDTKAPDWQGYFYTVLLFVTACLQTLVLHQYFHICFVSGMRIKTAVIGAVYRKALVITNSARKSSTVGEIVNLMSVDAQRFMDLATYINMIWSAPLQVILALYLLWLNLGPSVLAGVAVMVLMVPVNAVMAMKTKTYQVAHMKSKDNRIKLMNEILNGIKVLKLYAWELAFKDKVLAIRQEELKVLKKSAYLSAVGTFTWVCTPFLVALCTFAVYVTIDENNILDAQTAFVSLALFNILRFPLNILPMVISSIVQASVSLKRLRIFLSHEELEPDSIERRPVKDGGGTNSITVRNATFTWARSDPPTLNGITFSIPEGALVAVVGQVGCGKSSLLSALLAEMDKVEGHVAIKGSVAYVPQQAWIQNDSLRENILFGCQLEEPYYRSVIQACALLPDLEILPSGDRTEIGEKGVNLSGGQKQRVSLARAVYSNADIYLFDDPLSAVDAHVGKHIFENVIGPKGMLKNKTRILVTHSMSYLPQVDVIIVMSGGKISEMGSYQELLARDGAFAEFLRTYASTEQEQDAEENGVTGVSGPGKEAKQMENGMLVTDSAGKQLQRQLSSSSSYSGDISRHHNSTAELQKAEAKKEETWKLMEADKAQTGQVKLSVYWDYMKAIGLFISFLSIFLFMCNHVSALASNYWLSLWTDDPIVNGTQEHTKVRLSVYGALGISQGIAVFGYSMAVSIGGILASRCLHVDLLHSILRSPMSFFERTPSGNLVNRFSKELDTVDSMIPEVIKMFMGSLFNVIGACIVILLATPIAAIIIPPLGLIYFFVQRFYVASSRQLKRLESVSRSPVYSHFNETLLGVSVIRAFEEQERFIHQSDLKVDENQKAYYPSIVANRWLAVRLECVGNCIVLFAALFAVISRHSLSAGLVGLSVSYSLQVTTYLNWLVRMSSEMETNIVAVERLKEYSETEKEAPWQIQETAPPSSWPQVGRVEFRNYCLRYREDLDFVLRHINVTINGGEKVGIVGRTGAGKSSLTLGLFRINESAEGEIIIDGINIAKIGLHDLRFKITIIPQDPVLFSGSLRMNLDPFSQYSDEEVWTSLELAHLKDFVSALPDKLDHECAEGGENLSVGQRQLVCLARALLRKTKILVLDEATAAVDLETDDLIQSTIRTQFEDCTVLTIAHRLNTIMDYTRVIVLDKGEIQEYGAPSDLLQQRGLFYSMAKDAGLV
Description: To determine if the NSAIDs were acting directly on the MRP pump the uptake of [^3H]LTC4 into inside-out plasma membrane vesicles prepared from HL60ADR cells was examined using a rapid filtration procedure (Ishikawa,T., et al. (1994); J. Biol. Chem. 269 (46); 29085-29093). ATP-dependent transport of [^3H]LTC4 into the membrane vesicles was measured by a rapid filtration method using a Millipore sampling manifold. The membrane vesicles were thawed at 37° C. before use and kept on ice. The reaction components consisted of 0.25 M sucrose/10 mM Tris.HCl pH 7.4/1 mM ATP/10 mM MgCl2/10 mM creatine phosphate/ 110 μg/ml creatine kinase and 10 nM [^3H]LTC4, with 50 μg of the inside-out vesicle preparation, in a final volume of 110 μl. This suspension was incubated at 37° C., with gentle mixing, and aliquots, 20 μl, were taken at the indicated points. Those aliquots were diluted in 1 ml of ice-cold incubation buffer before being applied to 0.22 μm Millipore GSWP nitrocellulose filters, pre-soaked in ice-cold incubation buffer, under suction. The filters were subsequently washed with 3 ml ice-cold incubation buffer, and absorbed radioactivity was measured using a scintillation counter (Beckman). In control experiments ATP was replaced with 5μ-AMP to determine the ATP-dependent transport.

[1] = test system: GST prepared from DLKP cells; assay: total GST assay with 1-chloro-2,4-dinitrobenzene; assay type: biochemical, human; conditions: 0.4 mM
Description: The other NSAIDs were tested in a total GST assay (Habig, W. H., and Jakoby, W. B., (1981); Methods Enzymol., 77: 218-231). Total cellular GST activity was assayed, using 1-chloro-2,4-dinitrobenzene as a substrate, according to the method of Habig, W. H., and Jakoby, W. B., (1981); supra. Due to spectrophotometric interference at 340 nm, caused by the majority of the NSAIDs, the assays were all performed at 360 nm, without any apparent effect on the rate of the control reaction The results are shown in Table 5.

SP2 mouse myeloma cells = assay: mouse tumour model, survival of Balb/c mice injected with SP2 cells; assay type: in vivo; conditions: groups of 8 Balb/c mice; i.p. once a day, five days a week; adriamycin 0.25 mg/kg, tolmetin 70 mg/kg; after 32 days
Description: The in vivo relevance of our findings was studied using a mouse tumour model. SP2 tumour cells were injected into 4 groups of mice. Groups of 8 male Balb/c mice 8 weeks old were maintained on normal diets. Animals were injected with 2 million SP2 mouse myeloma cells on day 1. On day 3 intraperitoneal injection with adriamycin, tolmetin or a combination of the two was begun. This continued once a day, five days a week for a total of 32 days. The agents were dissolved in PBS and prepared freshly twice per week. The animals were weighed and the average weight of the group was used to calculate the required concentration of the drugs. Adriamycin was administered to give a final concentration of 0.25 mg/kg, the tolmetin dose was 70 mg/kg. […] The results were expressed as the number of animals alive each day as a percentage of the original number of animals alive.
Group 1 received injections of the vehicle (PBS) alone, group 2, adriamycin at 0.25 mg/kg, group 3, tolmetin at 70 mg/kg and group 4 received both agents (adriamycin, 0.25 mg/kg and tolmetin, 70 mg/kg). After 32 days there were clear differences in the % survival between the groups (FIG. 5). […] Two mice remained in the adriamycin group but 5 survived to the end of the experiment from the combination group (group 4).

MRP-specific substrates = assay: screen for enhancement of toxicity of MRP substrates by NSAIDs; assay type: cell-based; conditions: summary statements
OAW42-SR cell line = assay: miniaturised in vitro colorimetric cell survival assay, LRP overexpressing OAW42-SR; assay type: cell-based, human; conditions: vi) Adriamycin 147 ng/ml alone
Description: All the results presented in this Example for the DLKP, A549 and OAW42-SR cell lines were derived using the same miniaturised in vitro calorimetric assay system. On Day 1 of the assay 1000 cells/well/100 μl were plated into 96-well plates. Cells were allowed to attach overnight and cell viability was visually assessed. On Day 2 the two drugs (i.e. NSAID plus chemotherapeutic drug) to be analysed were added onto the cells. The individual drugs were added separately in 50 μl quantities (4× stocks, to take into account the dilution effect of having 200 μl final volume in each well). The drugs were left on the cells for five further days (Day 7) and cell number was determined using the acid phosphatase end-point assay which uses p-nitrophenol phosphate as substrate (Martin, A. and Clynes, M. (1991) In Vitro Dev. Biol., 27A, 183-184). On Day 7 the culture medium was removed from the cells and they were washed once with phosphate buffered saline (PBS). […] After the incubation period 50 μl of 1N NaOH was added to each well to develop the colour. The plates were then read at 405 nm (reference 620 nm) on an ELISA plate-reader. […] All results are the cell survival means ±S.D. from a minimum of three experiments.

COR L23 R (MRP+) cells = conditions: doxorubicin 10 mg/ml alone or with sulindac 20 mg/ml, 1, 2, 4 h, FIG. 3
Description: (§2) 10^6 COR L23 P (parental non-MRP resistant, MRP−) or COR L23 R (MRP resistant, MRP+) cells were added to 75 cm^3 vented flasks containing HEPES buffered Rosemount Park Memorial Institute (RPMI) medium and maintained at 37° C. in a 5% CO2 atmosphere. […] After three days of growth, doxorubicin (final concentration 10 mg/ml), sulindac (final concentration 20 mg/ml) or doxorubicin and sulindac were added to individual flasks. Samples were taken after 1, 2 and 4 h. and assayed for drug content.
(§3) The contents of each flask were washed twice with 5 ml of PBS and stored at −70° C. The flasks were thawed and 100 μl of water and 100 μl of 33% silver nitrate added to each and mixed for 5 min. […]
(§4) The extract was resuspended in 50 μl of methanol in the sample vial and loaded into the HPLC autosampler. […] The mobile phases were pumped through a C18 reversed-phase Ultrasphere XL (Beckman) HPLC column (4.6×70 mm) with absorbance measured at 253 nm. […] The amount of doxorubicin and sulindac present was quantified by measuring the peak height of these drugs and the internal standard. […] The concentration of doxorubicin in the samples was calculated from the) nd development standard line using the peak height ratio. The sulindac concentrations were calculated by the same method.

[2] = test system: COR L23 P (non-MRP) cells; conditions: doxorubicin 10 mg/ml alone or with sulindac 20 mg/ml, 1, 2, 4 h, FIG. 4
Description: as §2, §3, §4

## CC[C@]1(O)C[C@H]2CN(CCc3c([nH]c4ccccc34)[C@@](C(=O)OC)(c3cc4c(cc3OC)N(C=O)[C@H]3[C@@](O)(C(=O)OC)[C@H](OC(C)=O)[C@]5(CC)C=CCN6CC[C@]43[C@@H]65)C2)C1 [Vincristine, vincristine]
DLKP cell line; ii) Vincristine 1.0 ng/ml alone
  % cell survival: 72.98 ± 3.5%
DLKP-A cell line
  % cell survival: 89.12 ± 1.3%

## COc1cc([C@@H]2c3cc4c(cc3[C@@H](O[C@@H]3O[C@@H]5CO[C@@H](C)O[C@H]5[C@H](O)[C@H]3O)[C@H]3COC(=O)[C@H]23)OCO4)cc(OC)c1O [VP-16, etoposide]
DLKP cell line; iii) VP-16 100 ng/ml alone
  % cell survival: 63.46 ± 1.4%
HL-60ADR cells
  etoposide-induced apoptosis, percentage of apoptotic cells: only a basal level of apoptosis is seen

## Cc1ccc(C(=O)c2ccc(CC(=O)O)n2C)cc1 [Tolmetin, tolmetin]
DLKP cell line; i) Tolmetin 6.25 μg/ml, alone or + Adriamycin 10 ng/ml
  % cell survival: 104.38 ± 6.8%
DLKP cell line; i) Tolmetin 12.5 μg/ml, alone or + Adriamycin 10 ng/ml
  % cell survival: 104.23 ± 6.2%
DLKP cell line; i) Tolmetin 25 μg/ml, alone or + Adriamycin 10 ng/ml
  % cell survival: 100.49 ± 7.3%
A549 cell line; xiv) Tolmetin 8.50 μg/ml
  % cell survival: 91.84 ± 10.99%
A549 cell line; xiv) Tolmetin 14.10 μg/ml
  % cell survival: 97.59 ± 9.85%
A549 cell line; xiv) Tolmetin 24.20 μg/ml
  % cell survival: 99.24 ± 10.35%
MRP pump; 0.432 mM
  inhibition at 432 µM: 22%
MRP pump; 0.863 mM
  inhibition at 863 µM: 50%
[1]
  % Inhibition of GST: 55%
SP2 mouse myeloma cells
  mice surviving to the end of the experiment: all but one from group 3 were dead
MRP-specific substrates
  enhancement of toxicity of MRP substrates: have been found to enhance the toxicity of MRP-specific substrates

## COc1cccc2c1C(=O)c1c(O)c3c(c(O)c1C2=O)C[C@@](O)(C(=O)CO)C[C@@H]3O[C@H]1C[C@H](N)[C@H](O)[C@H](C)O1 [Adriamycin, adriamycin]
DLKP cell line; i) Adriamycin 10 ng/ml alone
  % cell survival: 60.35 ± 3.2%
A549 cell line; Homo sapiens, A549, 120 h, ix) Adriamycin 40 ng/ml alone
  viability at 0.04 µg/mL: 54 ± 6.05%
A549 cell line; Homo sapiens, A549, 120 h, viii) Adriamycin 15 ng/ml alone
  viability at 0.015 µg/mL: 61 ± 5.05%
A549 cell line; Homo sapiens, A549, 120 h, x) Adriamycin 15 ng/ml alone
  viability at 0.015 µg/mL: 47 ± 5.15%
A549 cell line; Homo sapiens, A549, 120 h, xi) Adriamycin 40 ng/ml alone
  viability at 0.04 µg/mL: 46 ± 5.05%
A549 cell line; Homo sapiens, A549, 120 h, xii) Adriamycin 15 ng/ml alone
  viability at 0.015 µg/mL: 70.7 ± 4.25%
A549 cell line; Homo sapiens, A549, 120 h, xiii) Adriamycin 15 ng/ml alone
  viability at 0.015 µg/mL: 68 ± 5.82%
A549 cell line; Homo sapiens, A549, 120 h, xiv) Adriamycin 20 ng/ml alone
  viability at 0.02 µg/mL: 78 ± 3.95%
A549 cell line; Homo sapiens, A549, 120 h, xv) Adriamycin 15 ng/ml alone
  viability at 0.015 µg/mL: 89 ± 11.9%
A549 cell line; Homo sapiens, A549, 120 h, xvi) Adriamycin 17 ng/ml alone
  viability at 0.017 µg/mL: 76.7 ± 5.4%
OAW42-SR cell line
  % cell survival: 47.41 ± 1.3%
SP2 mouse myeloma cells
  mice surviving to the end of the experiment: Two
COR L23 R (MRP+) cells
  doxorubicin level in the cells: less doxorubicin is found in the cells
[2]
  doxorubicin level in the cells: high levels of doxorubicin are found in the cell
